Read-outs that look alike come from different tables or passages of the source.
Experiments:
[1] = system: T. brucei brucei Lister 427; assay: T. b. brucei Lister 427 bloodstream-form growth inhibition, SYBR Green viability assay, 72 h; type: cell-based, Trypanosoma brucei brucei
[2] = molecular target: T1, human cathepsin L (hCatL) (Homo sapiens, UniProt P07711); assay: hCatL inhibition assay, Z-FR-AMC substrate; type: biochemical; settings: mean ± SD, two experiments in triplicate (n = 6)
T1 construct: purchased R&D Systems 952-CY
Method: (§1) All experiments were performed in a 384-well black microplate, using a Synergy HTX (Biotek) plate reader at 25 °C with absorption/emission wavelengths of 360/460 nm. Assays were performed in triplicate wells and DMSO was used as a vehicle control. Enzyme activity was measured and normalized to DMSO controls, and the inhibitor E-64 (10 μM) was used as a positive control for all assays. Experiments were performed in triplicate, with at least two independent assays (n = 6 data points). IC50 values were determined through nonlinear regression. The data obtained were analyzed using GraphPad Prism 9.0 (GraphPad Software, La Jolla, California, US).
Recombinant hCatL was purchased from R&D Systems (952-CY) and activated according to the manufacturers protocol. This enzyme, hCatL, is used to test compounds’ selectivity because it is the human homologue of TbrCATL. The assay was modified from, using 25 pM of the enzyme diluted in 40 mM sodium acetate, 5 mM DTT, 100 mM NaCl, 1 mM EDTA and 0.01% Triton X-100, pH 5.5. Enzyme and compound (10 μM), were incubated for 30 min at room temperature. Then Z-FR-AMC was added (30 μL diluted in the same assay buffer) to yield a final concentration of 25 μM and the assay allowed to proceed for 10 min. DR assays were performed over 15 2-fold serial dilutions starting at 0.5 or 20 μM.

[3] = molecular target: T. brucei cathepsin L-like protease (TbrCATL) (Trypanosoma brucei rhodesiense, UniProt Q95PM0); assay: TbrCATL inhibition assay, Z-FR-AMC substrate; type: biochemical; settings: for SI TbrCATL: IC50 hCatL/IC50 TbrCATL; for IC50: mean ± SD, two experiments in triplicate (n = 6)
Method: as §1
The screening assay was performed using 0.5 nM of TbrCATL diluted in 0.1 M sodium acetate, 1 mM dithiothreitol (DTT), and 0.01% Triton X-100, pH 5.5. TbrCATL was expressed and purified as described. Enzyme the compound (10 μM), were incubated for 10 min at room temperature. Then the substrate, Z-Phe-Arg-amidomethylcoumarin (Z-FR-AMC; Sigma-Aldrich, C9521), was added (30 μL diluted in the same assay buffer) to yield a final concentration of 2.5 μM and the assay allowed to proceed for 10 min. […] For those compounds inhibiting enzyme activity by >85%, DR assays were performed over 15 2-fold serial dilutions starting at 0.5 or 20 μM.

HepG2 cells = assay: HepG2 cytotoxicity, CellTiter-Glo, 48 h; settings: for inhibition at 10 µM: Homo sapiens, HepG2, read-out: HepG2 inhibition (%); for HepG2 inhibition (%): growth inhibition at 10 µM, ± SD
[4] = DPPH radical scavenging (antioxidant) assay; settings: after 2 h, mean ± SEM
HEK293 cells = assay: HEK293 cytotoxicity, CellTiter-Glo, 48 h; settings: for inhibition at 10 µM: Homo sapiens, HEK293, read-out: HEK293 inhibition (%); for HEK293 inhibition (%): growth inhibition at 10 µM, ± SD
in vitro [5] = settings: human, CC50 HEK293 (μM)
in vitro [6] = settings: human, CC50 HepG2 (μM)
C2C12 cells = settings: read-out: Toxicity CC50 C2C12 cells; cited from earlier work
[7] = Trypanosoma brucei, growth inhibition at 10 µM, ± SD
[8] = read-out: TbrCATL inhibition (%), at 10 μM
[9] = Trypanosoma brucei, three independent experiments in duplicate (n = 6) ± SD, read-out: EC50 T. brucei
[10] = growth inhibition at 10 µM, ± SD, 10 µM
[11] = growth inhibition at 10 µM, ± SD
[12] = at 10 μM, read-out: TbrCATL inhibition (%)

T1 sequence (P07711 114-333): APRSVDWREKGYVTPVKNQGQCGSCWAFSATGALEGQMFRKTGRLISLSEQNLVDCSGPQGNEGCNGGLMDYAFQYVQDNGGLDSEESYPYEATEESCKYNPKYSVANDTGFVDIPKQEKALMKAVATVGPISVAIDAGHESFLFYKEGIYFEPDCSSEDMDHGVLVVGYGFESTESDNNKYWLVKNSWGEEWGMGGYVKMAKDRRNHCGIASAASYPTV
T. brucei cathepsin L-like protease (TbrCATL), sequence (Q95PM0 1-450): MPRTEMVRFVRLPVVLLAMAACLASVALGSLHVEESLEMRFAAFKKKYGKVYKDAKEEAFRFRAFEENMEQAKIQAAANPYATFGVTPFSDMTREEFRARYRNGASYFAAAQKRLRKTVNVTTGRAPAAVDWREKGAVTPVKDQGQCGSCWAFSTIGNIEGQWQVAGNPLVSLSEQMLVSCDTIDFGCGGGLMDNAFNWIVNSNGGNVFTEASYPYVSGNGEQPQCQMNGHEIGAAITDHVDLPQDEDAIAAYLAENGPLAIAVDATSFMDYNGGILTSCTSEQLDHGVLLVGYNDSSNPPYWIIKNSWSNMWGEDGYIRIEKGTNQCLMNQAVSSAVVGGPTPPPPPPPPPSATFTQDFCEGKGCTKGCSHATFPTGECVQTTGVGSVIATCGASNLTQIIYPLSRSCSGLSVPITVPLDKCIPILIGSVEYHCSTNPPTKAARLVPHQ

Row | SMILES | inhibition at 10 µM [1, 7] | IC50 [2] | SI TbrCATL [3] | TbrCATL inhibition (%) ([3]; at 10 μM) | inhibition at 10 µM [3, 8] | inhibition at 10 µM (HepG2 cells) | % inhibited DPPH ([4]; 0.06 mg/ml) | inhibition at 10 µM (HEK293 cells) | % inhibited DPPH ([4]; 0.015 mg/ml) | % inhibited DPPH ([4]; 0.03 mg/ml) | also measured
1 | C/C(=N\NC(N)=S)c1ccc(Br)cc1 [SO3] | 28 ± 4% | 0.136 ± 0.0199 µM | 19 | 95.54% | > 85% | 65 ± 4% | 29.33 ± 24.77% | 76 ± 2% |  |  | IC50 ([3]; read-out: IC50 TbrCATL): 7.33 ± 0.27 nM
2 | C/C(=N\Nc1nc(C)c[se]1)c1ccc(C)cc1 [SeC1] | 72 ± 6% |  |  | 51.07% |  | 65 ± 9% | 72.33 ± 2.33% | 77 ± 2% | 71.67 ± 2.85% | 71.67 ± 2.40% | EC50 [1, 9]: 9.8 ± 0.63 µM; T. brucei inhibition (%) [1, 10]: > 70%; TbrCATL inhibition (%) ([3]; at 10 μM, listed as Se C1, 10 µM): ≤ 85%; CC50 (in vitro [5]): 12 ± 4.94 µM; CC50 (in vitro [6]): 11 ± 0.88 µM
3 | Cc1c(C)c2c(c(C)c1O)CCC(C)(C(=O)O)O2 (stereo not shown) [TRO, Trolox, reference compound] |  |  |  |  |  |  | 79.67 ± 0.67% |  | 79.33 ± 1.33% | 79.33 ± 0.882% | 
4 | C/C(=N\NC(N)=S)c1cccc([N+](=O)[O-])c1 [SO5] | 31 ± 5% | 0.0207 ± 0.00436 µM | 4 | 100.00% | > 85% | 39 ± 9% | 23.33 ± 19.46% | 14 ± 9% |  |  | IC50 ([3]; read-out: IC50 TbrCATL): 5.83 ± 0.35 nM
5 | C/C(=N\NC(N)=[Se])C12CC3CC(CC(C3)C1)C2 [SeO11] |  |  |  |  |  |  |  |  |  |  | T. brucei inhibition (%) [1, 10]: 100 ± 1%; T. brucei inhibition (%) ([1]; growth inhibition at 10 µM, ± SD, listed as Se O11, 10 µM): > 70%; EC50 ([1]; three independent experiments in duplicate (n = 6) ± SD, read-out: EC50 T. brucei): 5.16 ± 1.06 µM; HepG2 inhibition (%) (HepG2 cells): 66 ± 5%; CC50 (HepG2 cells; read-out: CC50 HepG2, three independent experiments in duplicate): 6.01 ± 0.69 µM; HEK293 inhibition (%) (HEK293 cells): 100 ± 4%; CC50 (HEK293 cells; read-out: CC50 HEK293, three independent experiments in duplicate): 10.5 ± 0.36 µM
6 | C/C(=N\Nc1nc(C)c[se]1)C12CC3CC(CC(C3)C1)C2 [SeC11] |  |  |  |  |  |  |  |  |  |  | T. brucei inhibition (%) [1, 11]: 37 ± 0%; HepG2 inhibition (%) (HepG2 cells): 66 ± 2%; HEK293 inhibition (%) (HEK293 cells): 64 ± 10%
7 | N=C(N)c1ccc(OCCCCCOc2ccc(C(=N)N)cc2)cc1 [Pentamidine, reference compound] |  |  |  |  |  |  |  |  |  |  | inhibition at 10 µM ([1]; Trypanosoma brucei): 100 ± 2%; EC50 ([1]; Trypanosoma brucei, read-out: EC50 T. brucei (μM)): 0.014 ± 0.002 µM
8 | C/C(=N\NC(N)=S)c1ccc(C)cc1 [SO1] | 44 ± 7% |  |  |  |  | 50 ± 4% | 45.00 ± 8.33% | 30 ± 3% |  |  | inhibition at 10 µM [3, 12]: 80%
9 | C/C(=N\Nc1nc(C)cs1)c1ccc(C)cc1 [SC1] | 30 ± 6% |  |  |  |  | 4 ± 15% | 60.00 ± 4.16% | 24 ± 7% | 55.00 ± 1.53% | 54.33 ± 1.86% | inhibition at 10 µM [3, 12]: 32.9%
10 | O=C1O[C@H]([C@@H](O)CO)C(O)=C1O [ASC, ascorbic acid, reference compound] |  |  |  |  |  |  | 80.33 ± 0.67% |  | 76.00 ± 3.52% | 80.33 ± 0.33% | 
11 | C/C(=N\Nc1nc(C)c[se]1)c1ccc(Br)cc1 [SeC3] |  | 0.793 ± 0.0665 µM | 4 | 101.02% | > 85% | 80 ± 2% | 75.67 ± 1.45% | 88 ± 3% | 35.00 ± 18.82% | 71.00 ± 3.06% | EC50 [1, 9]: 6.04 ± 0.72 µM; T. brucei inhibition (%) [1, 10]: 99 ± 2%; T. brucei inhibition (%) ([1]; growth inhibition at 10 µM, ± SD, listed as Se C3, 10 µM): > 70%; CC50 (C2C12 cells): > 10 µM; IC50 ([3]; IC50 TbrCATL (nM)): 201.7 ± 0.92 nM; CC50 (in vitro [5]): 5.9 ± 1.22 µM; CC50 (in vitro [6]): 4.68 ± 0.14 µM
12 | C/C(=N\NC(N)=[Se])c1ccc(C)cc1 [SeO1] |  | 0.0845 ± 0.017 µM | 5 | 97.08% | > 85% | 80 ± 1% | 77.33 ± 1.76% | 100 ± 1% | 45.67 ± 9.56% | 78.00 ± 1.16% | EC50 [1, 9]: 0.98 ± 0.12 µM; T. brucei inhibition (%) [1, 10]: 100 ± 1%; T. brucei inhibition (%) ([1]; growth inhibition at 10 µM, ± SD, listed as Se O1, 10 µM): > 70%; IC50 ([3]; IC50 TbrCATL (nM)): 17.9 ± 3.62 nM; CC50 (in vitro [5]): 4.27 ± 0.22 µM; CC50 (in vitro [6]): 4.17 ± 0.6 µM
13 | C/C(=N\Nc1nc(C)cs1)c1cccc([N+](=O)[O-])c1 [SC5] | 40 ± 8% | 4.07 ± 0.383 µM | 49 | 87.70% | > 85% | 17 ± 2% | 66.67 ± 1.86% | 30 ± 3% | 66.33 ± 1.86% | 68.67 ± 2.03% | IC50 ([3]; read-out: IC50 TbrCATL): 82.6 ± 4.05 nM
14 | C/C(=N\Nc1nc(C)cs1)C12CC3CC(CC(C3)C1)C2.Cl [SC11] |  |  |  |  |  |  |  |  |  |  | T. brucei inhibition (%) [1, 11]: 19 ± 8%; HepG2 inhibition (%) (HepG2 cells): 0 ± 13%; HEK293 inhibition (%) (HEK293 cells): 39 ± 3%
15 | COc1ccc(C(C)=NNc2nc(C)cs2)cc1.Cl [SC2] |  |  |  |  |  |  |  |  |  |  | T. brucei inhibition (%) [1, 11]: 27 ± 5%; HepG2 inhibition (%) (HepG2 cells): 6 ± 3%; HEK293 inhibition (%) (HEK293 cells): 33 ± 8%
16 | C/C(=N\Nc1nc(C)cs1)c1ccc(Br)cc1 [SC3] | 38 ± 9% |  |  |  |  | 46 ± 7% | 67.00 ± 2.31% | 64 ± 2% | 68.00 ± 3.06% | 69.33 ± 2.33% | inhibition at 10 µM [3, 12]: 54%

From PMC12177781, “Chalcogen Derivatives for the Treatment of African Trypanosomiasis: Biological Evaluation of Thio- and Seleno-Semicarbazones and Their Azole Derivatives” (ACS Omega, 2025)
